Laboratory results from patent US20210283163A1, “COMPOSITIONS AND METHODS FOR THE TREATMENT OF ACUTE AND CHRONIC PRURITIS” (Duke University, priority 2018, published 2021).

Tests used:
mmu-TRPA1 = target: T1, mmu-TRPA1 (Mus musculus, UniProt Q8BLA8); experiment: Whole-cell patch clamp in CHO cells transfected with wild-type mmu-Trpa1 cDNA; assay type: cell-based; settings: miR-711 10 μM, AITC 50 μM
T1 construct: HA; expressed in transfected cells; host or cells: CHO cells (ATCC CRL-9096), transient transfection with Lipofectamine 2000
T1 sequence (Q8BLA8 whole entry): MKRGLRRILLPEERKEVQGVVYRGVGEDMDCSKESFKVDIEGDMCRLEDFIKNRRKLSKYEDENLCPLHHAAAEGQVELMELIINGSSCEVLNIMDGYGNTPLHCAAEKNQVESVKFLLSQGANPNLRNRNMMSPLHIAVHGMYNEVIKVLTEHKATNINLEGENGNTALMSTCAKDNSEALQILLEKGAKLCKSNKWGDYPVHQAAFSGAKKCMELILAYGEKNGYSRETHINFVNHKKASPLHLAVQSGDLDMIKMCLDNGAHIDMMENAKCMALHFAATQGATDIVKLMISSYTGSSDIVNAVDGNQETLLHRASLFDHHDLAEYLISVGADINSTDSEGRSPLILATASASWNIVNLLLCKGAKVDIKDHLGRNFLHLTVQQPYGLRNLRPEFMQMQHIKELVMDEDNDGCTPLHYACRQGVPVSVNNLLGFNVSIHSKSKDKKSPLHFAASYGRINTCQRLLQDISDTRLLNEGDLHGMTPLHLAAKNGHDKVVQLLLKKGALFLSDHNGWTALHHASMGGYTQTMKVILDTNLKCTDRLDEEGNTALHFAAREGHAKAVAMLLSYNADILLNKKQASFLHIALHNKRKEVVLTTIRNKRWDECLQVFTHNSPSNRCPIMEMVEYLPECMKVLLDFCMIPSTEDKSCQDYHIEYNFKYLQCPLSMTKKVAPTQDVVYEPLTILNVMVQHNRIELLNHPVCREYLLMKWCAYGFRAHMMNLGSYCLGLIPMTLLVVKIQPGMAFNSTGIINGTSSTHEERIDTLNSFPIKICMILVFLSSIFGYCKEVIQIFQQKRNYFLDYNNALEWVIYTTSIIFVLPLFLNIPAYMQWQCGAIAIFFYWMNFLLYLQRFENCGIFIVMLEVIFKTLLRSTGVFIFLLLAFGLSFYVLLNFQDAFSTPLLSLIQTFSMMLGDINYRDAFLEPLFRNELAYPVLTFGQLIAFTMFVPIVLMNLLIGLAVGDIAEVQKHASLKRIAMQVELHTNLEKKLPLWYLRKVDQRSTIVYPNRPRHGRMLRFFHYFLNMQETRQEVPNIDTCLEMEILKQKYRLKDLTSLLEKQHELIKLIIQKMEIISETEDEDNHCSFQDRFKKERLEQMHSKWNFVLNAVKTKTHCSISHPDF
Method: Constructs. The cDNAs of mouse pcDNA3.1-Trpa1, pcDNA3.1-Trpv1, pcDNA3.1-Trpv2, pcDNA3.1-Trpv3, and pcDNA3.1-Trpv4 were kindly provided Dr. Sun Work Hwang from Korea University. Mouse Trpa1 cDNA was subcloned into pCGN-HA backbone (Addgene) using In-Fusion HD Cloning Kit (Clontech Laboratories, CA). Q5 Site-Directed Mutagenesis Kit was used to generate mTrpa1 mutant (M1-M13) based on pCGN-mTrpa1.
Cell Culture and Transfection. CD4^+ Myla cell line was cultured in RPMI 1640 media (GIBCO), supplemented with 2 mM Glutamine (GIBCO), 100 U/mL IL-2 (Sigma), 100 U/mL IL-4 (Sigma), and 10% human AB serum (Sigma). HuT 102 cell line was cultured in RPMI 1640 supplemented with pyruvate, HEPES, and 10% (v/v) fetal bovine serum (HyClone). HEK293-hTRPA1 stable cell line was cultured in MEM (GIBCO) containing 2 mM Glutamine, 4 μg/mL Blasticidin, 10% FBS (v/v). B16 and CHO cells were cultured in high glucose (4.5 g/L) Dulbecco's Modified Eagle's Medium (GIBCO) containing 10% (v/v) fetal bovine serum (GIBCO). Culture media were supplemented with 50 units/mL of penicillin and 50 μg/mL streptomycin, and cultures were maintained with 5% CO2 in 37° C. incubator. Transfection (2 μg cDNA) was performed with Lipofectamine™ 2000 Reagent (Invitrogen) at 80% confluency and the transfected cells were cultured in the same media for 48 hr before electrophysiological and biochemical studies. […]

mice = experiment: Evans blue extravasation, neurogenic inflammation in a hind paw; assay type: in vivo, mouse; settings: intraplantar, 10 μL; capsaicin 1 mM, AITC 5 mM, miR-711 1 mM
Method: Evans Blue Extravasation. To examine neurogenic inflammation in a hind paw (Han et al., Neuron 2016, 92, 1279-1293), mice were anesthetized with 5% isoflurane. Evans blue (50 mg/kg body weight) was given intravenously 10 min before neurogenic irritant application. […] Evans blue was extracted from the tissues by incubation in 400 μL formamide at 37° C. for 48 hr. Evans blue was quantified by measuring the optical density of the formamide extract at 620 nm. Absorbance was normalized to per gram of tissue weight.

hTRPA1 = hTRPA1 (Homo sapiens, UniProt O75762); experiment: RNA pull-down assay and immunoblotting; assay type: binding
hTRPA1, sequence (O75762 whole entry): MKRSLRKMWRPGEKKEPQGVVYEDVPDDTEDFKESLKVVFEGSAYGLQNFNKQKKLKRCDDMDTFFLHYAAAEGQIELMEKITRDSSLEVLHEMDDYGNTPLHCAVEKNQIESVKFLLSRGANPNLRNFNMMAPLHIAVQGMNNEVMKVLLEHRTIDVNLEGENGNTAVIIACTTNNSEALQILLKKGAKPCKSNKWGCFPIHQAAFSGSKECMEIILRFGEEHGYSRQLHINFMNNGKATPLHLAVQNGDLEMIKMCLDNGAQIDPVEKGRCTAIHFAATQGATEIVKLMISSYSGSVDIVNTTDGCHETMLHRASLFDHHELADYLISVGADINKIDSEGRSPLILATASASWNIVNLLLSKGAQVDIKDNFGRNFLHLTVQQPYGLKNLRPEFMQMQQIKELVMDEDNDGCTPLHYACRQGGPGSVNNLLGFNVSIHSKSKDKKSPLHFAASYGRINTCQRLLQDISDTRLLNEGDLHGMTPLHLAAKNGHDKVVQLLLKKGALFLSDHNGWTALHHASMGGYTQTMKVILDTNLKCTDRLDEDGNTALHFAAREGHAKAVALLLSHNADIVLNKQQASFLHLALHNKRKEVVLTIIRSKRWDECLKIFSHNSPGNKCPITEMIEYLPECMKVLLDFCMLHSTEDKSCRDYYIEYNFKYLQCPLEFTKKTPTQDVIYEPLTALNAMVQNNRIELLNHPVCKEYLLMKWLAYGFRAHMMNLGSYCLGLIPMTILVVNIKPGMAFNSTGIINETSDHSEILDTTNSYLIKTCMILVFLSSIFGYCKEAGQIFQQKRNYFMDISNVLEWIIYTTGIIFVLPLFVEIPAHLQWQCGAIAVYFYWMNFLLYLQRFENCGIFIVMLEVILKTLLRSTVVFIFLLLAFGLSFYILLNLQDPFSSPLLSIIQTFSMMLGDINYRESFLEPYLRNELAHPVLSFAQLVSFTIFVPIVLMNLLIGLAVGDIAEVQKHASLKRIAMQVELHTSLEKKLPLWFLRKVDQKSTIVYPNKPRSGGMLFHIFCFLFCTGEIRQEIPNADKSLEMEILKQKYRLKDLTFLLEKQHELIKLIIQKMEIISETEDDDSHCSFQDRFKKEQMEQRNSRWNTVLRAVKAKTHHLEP
Method: RNA Pull-Down Assay and Immunoblotting. hTRPA1-expressing HEK293 cells of equal amount (5×10^6) were plated onto 60 mm dishes, and 24 hr later, these cells were incubated with biotin-conjugated miR-711 or miR-711 (m6) in extracellular solution containing 140 mM NaCl, 5 mM KCl, 2 mM CaCl2, 1 mM MgCl2, 10 mM HEPES, and 10 mM glucose, adjusted to pH 7.4 for 15 min at 37° C. with 5% CO2. For crosslinking, 1% formaldehyde (vol/vol) was added at 37° C. for 10 min, then 12.5% glycine was applied to stop crosslinking by 5 min incubation at room temperature. Then the cells were collected and sonicated with ultrosonic probe sonicator (80% output, 5 s on and 10 s off) in 1 mL lysis buffer (1% Triton X-100, 50 mM Tris-HCl, 150 mM NaCl, 5 mM EDTA, pH7.4) on ice for 2 min. We then centrifuged the lysate at 13,000 rpm for 10 min at 4° C. and took 50 μL supernatant as lysate control. The remaining supernatant was added 20 μL streptadvilin agrose beads and incubated overnight. The pellets were collected after centrifuge at 6000 rmp for 30 s. For competing assay, miR-711 (10-50 μM) or mutant miR-711 (m6, 10-50 μM) were added 15 min before the incubation with biotin-conjugated miR-711 (10 μM). For immunoblotting, the lysates or beads were incubated in SDS-PAGE loading buffer for 30 min at 50° C., and supernatant was collected after centrifugation at 13000 rpm and decrosslink at 99° C. for 20 min. The samples were separated on an SDS-PAGE gel, transferred, and probed with TRPA1 antibody (1:1000; Alomone labs). The immunoreactive bands were detected with horseradish peroxidase-conjugated secondary antibody, visualized with enhanced chemiluminescence (Thermo scientific, Pittsburgh, Pa.), and quantified with Image-Pro Plus software (Media Cybernetics, Bethesda, Md.). Each experiment was repeated at least three times.

| Molecule | inward currents (mmu-TRPA1) | neurogenic inflammation in hind paws (Evans blue test) (mice) | disruption of the miR-711/TRPA1 interaction (hTRPA1; RNA pull-down) | competition with binding of biotin-labeled miR-711 to TRPA1 (hTRPA1; 10-50 μM added 15 min before biotin-conjugated miR-711 (10 μM)) |
| --- | --- | --- | --- | --- |
| C=CCN=C=S [AITC] | induce inward currents | elicited robust neurogenic inflammation | – | – |
| NH2-FRNELAYPVLTFGQL-COOH (H-FRNELAYPVLTFGQL-OH) [blocking peptide] | – | – | disrupted the miR-711/TRPA1 interaction | – |
| miR-711: mmu-miR-711: gggacccggggagagauguaag (SEQ ID NO: 5) (GGGACCCGGGGAGAGAUGUAAG; chemistry not given here) | induce inward currents | failed to elicit neurogenic inflammation | – | inhibited the binding |
